# Source: ChEMBL document CHEMBL3994653, “Parallel fluorescent probe synthesis based on the large-scale preparation of BODIPY FL propionic acid” (Bioorg Med Chem Lett, 2017)
# Target: T1, Steroid hormone receptor ERR1 (Homo sapiens, UniProt P11474)
# T1 sequence (P11474 whole entry): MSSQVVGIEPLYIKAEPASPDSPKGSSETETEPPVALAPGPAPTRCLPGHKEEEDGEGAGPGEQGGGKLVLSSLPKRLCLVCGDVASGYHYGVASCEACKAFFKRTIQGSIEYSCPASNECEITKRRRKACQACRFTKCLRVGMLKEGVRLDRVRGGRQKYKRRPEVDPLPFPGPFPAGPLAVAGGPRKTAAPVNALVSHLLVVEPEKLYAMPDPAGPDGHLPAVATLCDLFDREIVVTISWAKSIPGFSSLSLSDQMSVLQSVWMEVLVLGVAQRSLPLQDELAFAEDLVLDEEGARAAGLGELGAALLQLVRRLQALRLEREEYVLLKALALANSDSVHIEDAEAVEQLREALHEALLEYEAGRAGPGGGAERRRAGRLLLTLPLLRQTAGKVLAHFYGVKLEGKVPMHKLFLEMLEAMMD
# Experiment: Inverse agonist activity at GAL4-fused human ERRalpha expressed in HEK293 cells assessed as inhibition of transcriptional activity after 20 hrs by luciferase reporter gene assay
# Type: cell-based
row,IC50 [nM],SMILES
1,490,CC(=O)c1ccc(N2CCN(C(=O)c3cc4c(C)nn(Cc5cccc(OCCCNC(=O)CCC6=[N+]7C(=Cc8c(C)cc(C)n8[B-]7(F)F)C=C6)c5)c4s3)C[C@H]2C)nc1
2,> 1000,CC(=O)c1ccc(N2CCN(C(=O)c3cc4c(C)nn(Cc5cccc(OCC6CN(C(=O)CCC7=[N+]8C(=Cc9c(C)cc(C)n9[B-]8(F)F)C=C7)CCO6)c5)c4s3)C[C@H]2C)nc1 (some centres not stated)
3,22,COCCOc1cccc(Cn2nc(C)c3cc(C(=O)N4CCN(c5ccc(C(C)=O)cn5)[C@H](C)C4)sc32)c1
4,170,CC(=O)c1ccc(N2CCN(C(=O)c3cc4c(C)nn(Cc5cccc(OCCCCNC(=O)CCC6=[N+]7C(=Cc8c(C)cc(C)n8[B-]7(F)F)C=C6)c5)c4s3)C[C@H]2C)nc1
5,170,CC(=O)c1ccc(N2CCN(C(=O)c3cc4c(C)nn(Cc5cccc(OCc6ccc(CNC(=O)CCC7=[N+]8C(=Cc9c(C)cc(C)n9[B-]8(F)F)C=C7)cc6)c5)c4s3)C[C@H]2C)nc1
6,210,CC(=O)c1ccc(N2CCN(C(=O)c3cc4c(C)nn(Cc5cccc(OCC6CCN(C(=O)CCC7=[N+]8C(=Cc9c(C)cc(C)n9[B-]8(F)F)C=C7)CC6)c5)c4s3)C[C@H]2C)nc1
7,390,CC(=O)c1ccc(N2CCN(C(=O)c3cc4c(C)nn(Cc5cccc(OCCOCCOCCNC(=O)CCC6=[N+]7C(=Cc8c(C)cc(C)n8[B-]7(F)F)C=C6)c5)c4s3)C[C@H]2C)nc1
8,770,CC(=O)c1ccc(N2CCN(C(=O)c3cc4c(C)nn(Cc5cccc(OCC6CCN(C(=O)CCC7=[N+]8C(=Cc9c(C)cc(C)n9[B-]8(F)F)C=C7)C6)c5)c4s3)C[C@H]2C)nc1 (some centres not stated)
9,570,CC(=O)c1ccc(N2CCN(C(=O)c3cc4c(C)nn(Cc5cccc(OCCOCCOCCOCCNC(=O)CCC6=[N+]7C(=Cc8c(C)cc(C)n8[B-]7(F)F)C=C6)c5)c4s3)C[C@H]2C)nc1
10,80,CC(=O)c1ccc(N2CCN(C(=O)c3cc4c(C)nn(Cc5cccc(OCCCCCNC(=O)CCC6=[N+]7C(=Cc8c(C)cc(C)n8[B-]7(F)F)C=C6)c5)c4s3)C[C@H]2C)nc1
11,650,CC(=O)c1ccc(N2CCN(C(=O)c3cc4c(C)nn(Cc5cccc(OCCNC(=O)CCC6=[N+]7C(=Cc8c(C)cc(C)n8[B-]7(F)F)C=C6)c5)c4s3)C[C@H]2C)nc1
12,280,CC(=O)c1ccc(N2CCN(C(=O)c3cc4c(C)nn(Cc5cccc(OCCOCCNC(=O)CCC6=[N+]7C(=Cc8c(C)cc(C)n8[B-]7(F)F)C=C6)c5)c4s3)C[C@H]2C)nc1
